In US9856290B2, “Glycopeptide compositions and uses thereof” (SUSSEX RESEARCH LABORATORIES INC., priority 2013, dated 2018):
Marks after values point to notes of the source that are not given here. Primed or numbered codes have the meaning given here. The star is where a group is joined. Ac4‑β‑Gal = tetraacetyl-β-galactoside (peracetylated β-galactose), CC(=O)OC[C@H]1O[C@@H](*)[C@H](OC(C)=O)[C@@H](OC(C)=O)[C@H]1OC(C)=O; Ac3‑α‑GalNAc″ = peracetylated alpha-N-acetylgalactosamine, CC(=O)N[C@@H]1[C@@H](OC(C)=O)[C@@H](OC(C)=O)[C@@H](COC(C)=O)O[C@@H]1*; Ac3‑β‑GlcNAc = per-acetylated β-N-acetylglucosamine, CC(=O)N[C@@H]1[C@@H](OC(C)=O)[C@H](OC(C)=O)[C@@H](COC(C)=O)O[C@H]1*; Ac4‑β‑Glc = per-acetylated β-glucose (tetraacetyl), CC(=O)OC[C@H]1O[C@@H](*)[C@H](OC(C)=O)[C@@H](OC(C)=O)[C@@H]1OC(C)=O; αGalNAc = CC(=O)N[C@@H]1[C@@H](O)[C@@H](O)[C@@H](CO)O[C@@H]1*; βGlcNAc = CC(=O)N[C@@H]1[C@@H](O)[C@H](O)[C@@H](CO)O[C@H]1*; βGlc = OC[C@H]1O[C@@H](*)[C@H](O)[C@@H](O)[C@@H]1O; βGal = OC[C@H]1O[C@@H](*)[C@H](O)[C@@H](O)[C@H]1O; Palmitoyl = CCCCCCCCCCCCCCCC(=O)*

How the values were obtained:
[1] = test system: Human Dermal Fibroblasts (KMST-6); assay: ECM ELISA assay: elastin secretion by human dermal fibroblasts; assay type: cell-based; conditions: 5 μM; for Elastin Secretion at 48 hours: KMST-6, 48 hours; for Elastin Secretion at 48 hours / Elastin Secretion at 72 hours: % compared to control set at 100%, normalized to total protein; for Elastin Secretion at 72 hours / ELASTIN (ECM Protein Summary Table): KMST-6, 72 hours; for increased elastin secretion compared to control: versus DMSO control; for ELASTIN (ECM Protein Summary Table): control 100%
Experimental: (§1) KMST-6 cells (Japan Health Sciences Foundation, JCRB0433) were seeded at 7,000 cells/ml in 12-well tissue culture treated plates (Falcon, 353043) in complete media. The complete media consisted of the following: MEM/EBSS (Hyclone, SH30024.01), 10% Heat-Inactivated FBS (Gibco, 10082-147), 1% L-Glutamine (Hyclone, SH30031.01), 1% Nucleosides (800 mg/L Adenosine, 850 mg/L Guanidine, 730 mg/L Cytidine, 730 mg/L Uridine and 240 mg/L Thymidine), 1% Penicillin/Streptomycin (HyClone, SV30010), 1% Sodium Pyruvate (HyClone, SH30239.01), 1% Non-Essential Amino Acids (Hyclone, SH30238.01) and 0.04% Gentamicin (Gibco, 15710-064). Cells were grown for 2 days prior to treatments. The media was aspirated and cells were washed with 1×PBS (Fisher, SH30256.01) and treated with 5 μM (1 mL/well) glycopeptides, reference (Pal-KTTKS, CPC Scientific, 822197), and control (DMSO, Fisher, BP231-100) in serum-free media supplemented with 50 μg/mL Sodium Ascorbate (Sigma, A4034) and 80 μg/mL β-Aminopropionate Fumarate (Sigma, A3134). The treated cells were incubated at 37° C. and 5% CO2 for 48 and 72 hours. At each timepoint, media from each treatment was collected and centrifuged at 1500 RPM for 15 minutes at 4° C. The supernatant was collected and stored at −80° C. for extracellular matrix protein quantification. The following kits were used for quantification of ECM proteins: Fibronectin (Takara, MK115) and Elastin (Uscn Life Science Inc., E91337Hu). The cells were harvest and lysed with 250 μL Lysis Buffer (20 mM Tris-HCl (Sigma, T1503), 137 mM NaCl (Sigma, S9888), 2 mM EDTA (Fisher, BP118), 1% IGEPAL (Sigma, 18896), 10% Glycerol (Sigma, G5516), 100 μM PMSF (Fisher, 36978) and 10 μg/mL Leupeptin (Sigma-Aldrich, L2884). They were placed on a container of ice on a plate shaker (Lab-Line Instruments, 3595) for 30 minutes. The lysate was centrifuged at 10,000 g for 5 minutes at 4° C. The supernatant was collected and used for protein quantification (BioRad, 500-0112).
(§2) To determine effects on extracellular matrix protein secretion, 5 μM of individual glycopeptides were incubated with Human Dermal Fibroblasts (KMST-6). The control sample cells were treated with DMSO (Fisher, BP231-100). As described previously, supernatant was collected from treated cells (at two time-points, 48 and 72 hours of treatment) and stored at −80° C. for subsequent extracellular matrix protein quantification using ELISA kits (Fibronectin (Takara, MK115), Elastin (Uscn Life Science Inc., E91337Hu). For the determination of total cellular protein, treated cells were harvested and lysed. The lysate was centrifuged, the supernatant was collected and then used for protein quantification (BioRad, 500-0112). ELISA plates were read on the plate reader (Molecular Devices) at absorbance of 450 nm and SoftMax Pro software was used to compute the μg/ml values of protein of interest derived from the generated 4-parameter fit standard curve. Each μg/ml of protein secreted was normalized to total protein per well. The data was analysed by averaging out normalized values from at least three independent experiments and presenting them as a % compared to control treatment set at 100% (Table 2-5). Statistical significance was performed using One-way ANOVA (p<0.05) where “*” represents statistical significance when compared to control and “#” represents statistical significance when compared to reference. […]

[2] = test system: Human Dermal Fibroblasts (KMST-6); assay: ECM ELISA assay: fibronectin secretion by human dermal fibroblasts; assay type: cell-based; conditions: 5 μM; for Fibronectin secretion at 48 hours: KMST-6, 48 hours; for Fibronectin secretion at 48 hours / Fibronectin Secretion at 72 hours: % compared to control set at 100%, normalized to total protein; for Fibronectin Secretion at 72 hours / FIBRONECTIN (ECM Protein Summary Table): KMST-6, 72 hours; for FIBRONECTIN (ECM Protein Summary Table): control 100%
Experimental: as §1, §2

Substance | Elastin Secretion at 48 hours [1] | Elastin Secretion at 72 hours [1] | Fibronectin secretion at 48 hours [2] | Fibronectin Secretion at 72 hours [2] | biological activity in elastin secretion compared to control ([1]; 72 hours) | increased elastin secretion compared to control ([1]; 72 hours) | ELASTIN (ECM Protein Summary Table) [1] | biological activity in fibronectin secretion compared to control ([2]; 72 hours) | FIBRONECTIN (ECM Protein Summary Table) [2] | increased secretion of elastin compared to the reference peptide ([1]; 72 hours, versus Pal-KTTKS reference) | increased fibronectin secretion compared to control ([2]; 72 hours, versus DMSO control)
Pal-KTT(Ac3-β-GlcNAc)KS-OH (Palmitoyl-KTT(Ac3‑β‑GlcNAc)KS-OH; SMILES CCCCCCCCCCCCCCCC(=O)N[C@@H](CCCCN)C(=O)N[C@H](C(=O)N[C@H](C(=O)N[C@@H](CCCCN)C(=O)N[C@@H](CO)C(=O)O)[C@@H](C)O[C@@H]1O[C@H](COC(C)=O)[C@@H](OC(C)=O)[C@H](OC(C)=O)[C@H]1NC(C)=O)[C@@H](C)O; listed as Homo sapiens) [GP001-11] | 114.3% | 94.75% | 111.2% | 113.8% |  |  |  |  |  |  | 
Pal-KTT(α-GalNAc)KS-OH (Palmitoyl-KTT(αGalNAc)KS-OH; SMILES CCCCCCCCCCCCCCCC(=O)N[C@@H](CCCCN)C(=O)N[C@H](C(=O)N[C@H](C(=O)N[C@@H](CCCCN)C(=O)N[C@@H](CO)C(=O)O)[C@@H](C)O[C@H]1O[C@H](CO)[C@H](O)[C@H](O)[C@H]1NC(C)=O)[C@@H](C)O; listed as Homo sapiens) [GP001-10] | 103.0% | 98.67% | 100.2% | 104.0% |  |  |  |  |  |  | 
Pal-KTT(β-Glc)KS-OH (Palmitoyl-KTT(βGlc)KS-OH; SMILES CCCCCCCCCCCCCCCC(=O)N[C@@H](CCCCN)C(=O)N[C@H](C(=O)N[C@H](C(=O)N[C@@H](CCCCN)C(=O)N[C@@H](CO)C(=O)O)[C@@H](C)O[C@@H]1O[C@H](CO)[C@@H](O)[C@H](O)[C@H]1O)[C@@H](C)O; listed as Homo sapiens) [GP001-8] | 94.25% | 91.25% | 106.4% | 106.2% |  |  |  |  |  |  | 
Pal-KTT(β-GlcNAc)KS-OH (Palmitoyl-KTT(βGlcNAc)KS-OH; SMILES CCCCCCCCCCCCCCCC(=O)N[C@@H](CCCCN)C(=O)N[C@H](C(=O)N[C@H](C(=O)N[C@@H](CCCCN)C(=O)N[C@@H](CO)C(=O)O)[C@@H](C)O[C@@H]1O[C@H](CO)[C@@H](O)[C@H](O)[C@H]1NC(C)=O)[C@@H](C)O; listed as Homo sapiens) [GP001-12] | 73.00% | 76.75% | 106.5% | 89.25% |  |  |  |  |  |  | 
Pal-KTTKS(Ac3-α-GalNAc)-OH (Palmitoyl-KTTKS(Ac3‑α‑GalNAc″)-OH; SMILES CCCCCCCCCCCCCCCC(=O)N[C@@H](CCCCN)C(=O)N[C@H](C(=O)N[C@H](C(=O)N[C@@H](CCCCN)C(=O)N[C@@H](CO[C@H]1O[C@H](COC(C)=O)[C@H](OC(C)=O)[C@H](OC(C)=O)[C@H]1NC(C)=O)C(=O)O)[C@@H](C)O)[C@@H](C)O; listed as Homo sapiens) [GP002-1] | 144.8% | 145.5% | 114.7% | 108.0% |  |  |  |  |  |  | 
Pal-KTTKS(Ac3-β-GlcNAc)-OH (Palmitoyl-KTTKS(Ac3‑β‑GlcNAc)-OH; SMILES CCCCCCCCCCCCCCCC(=O)N[C@@H](CCCCN)C(=O)N[C@H](C(=O)N[C@H](C(=O)N[C@@H](CCCCN)C(=O)N[C@@H](CO[C@@H]1O[C@H](COC(C)=O)[C@@H](OC(C)=O)[C@H](OC(C)=O)[C@H]1NC(C)=O)C(=O)O)[C@@H](C)O)[C@@H](C)O; listed as Homo sapiens) [GP002-5] | 159.3% | 137.3% | 111.3% | 104.2% |  |  |  |  |  |  | 
Pal-KTTKS(Ac4-β-Gal)-OH (Palmitoyl-KTTKS(Ac4‑β‑Gal)-OH; SMILES CCCCCCCCCCCCCCCC(=O)N[C@@H](CCCCN)C(=O)N[C@H](C(=O)N[C@H](C(=O)N[C@@H](CCCCN)C(=O)N[C@@H](CO[C@@H]1O[C@H](COC(C)=O)[C@H](OC(C)=O)[C@H](OC(C)=O)[C@H]1OC(C)=O)C(=O)O)[C@@H](C)O)[C@@H](C)O; listed as Homo sapiens) [GP002-7] | 198.3% | 207.1* % | 113.7% | 116.1% | greater biological activity | 107% | 207* % | greater biological activity | 116% |  | 
Pal-KTTKS(Ac4-β-Glc)-OH (Palmitoyl-KTTKS(Ac4‑β‑Glc)-OH; SMILES CCCCCCCCCCCCCCCC(=O)N[C@@H](CCCCN)C(=O)N[C@H](C(=O)N[C@H](C(=O)N[C@@H](CCCCN)C(=O)N[C@@H](CO[C@@H]1O[C@H](COC(C)=O)[C@@H](OC(C)=O)[C@H](OC(C)=O)[C@H]1OC(C)=O)C(=O)O)[C@@H](C)O)[C@@H](C)O; listed as Homo sapiens) [GP002-3] | 460.4* % | 321.6* % | 135.5% | 134.5* % | greater biological activity | 222% | 322*^# % | greater biological activity | 135* % | 189% | 35%
Pal-KTTKS(α-GalNAc)-OH (Palmitoyl-KTTKS(αGalNAc)-OH; SMILES CCCCCCCCCCCCCCCC(=O)N[C@@H](CCCCN)C(=O)N[C@H](C(=O)N[C@H](C(=O)N[C@@H](CCCCN)C(=O)N[C@@H](CO[C@H]1O[C@H](CO)[C@H](O)[C@H](O)[C@H]1NC(C)=O)C(=O)O)[C@@H](C)O)[C@@H](C)O; listed as Homo sapiens) [GP002-2] | 143.8% | 127.0% | 95.7% | 90.60% |  |  |  |  |  |  | 
Pal-KTTKS(β-Gal)-OH (Palmitoyl-KTTKS(βGal)-OH; SMILES CCCCCCCCCCCCCCCC(=O)N[C@@H](CCCCN)C(=O)N[C@H](C(=O)N[C@H](C(=O)N[C@@H](CCCCN)C(=O)N[C@@H](CO[C@@H]1O[C@H](CO)[C@H](O)[C@H](O)[C@H]1O)C(=O)O)[C@@H](C)O)[C@@H](C)O; listed as Homo sapiens) [GP002-8] | 103.8% | 177.8% | 110.0% | 121.0% |  |  |  |  |  |  | 
Pal-KTTKS(β-Glc)-OH (Palmitoyl-KTTKS(βGlc)-OH; SMILES CCCCCCCCCCCCCCCC(=O)N[C@@H](CCCCN)C(=O)N[C@H](C(=O)N[C@H](C(=O)N[C@@H](CCCCN)C(=O)N[C@@H](CO[C@@H]1O[C@H](CO)[C@@H](O)[C@H](O)[C@H]1O)C(=O)O)[C@@H](C)O)[C@@H](C)O; listed as Homo sapiens) [GP002-4] | 145.0% | 142.0% | 121.5% | 116.0% |  |  |  |  |  |  | 
